Measurements taken from US10463040B2, “Composition comprising a pesticide and isononanoic acid N,N-dimethyl amide” (BASF SE, priority 2015, dated 2019).

Experiments:
[1] = Emulsion stability: 5% of the emulsion concentrate diluted in CIPAC water D, ml cream after 1, 2, 4 and 24 h; format: physicochemical; design: key to Emulsion 5% in Cipac D 2 h / Emulsion 5% in Cipac D 4 h / Emulsion 5% in Cipac D 1 h / Emulsion 5% in Cipac D 24 h: stable = no cream; conditions: for Emulsion 5% in Cipac D 1 h / Emulsion 5% in Cipac D 2 h / Emulsion 5% in Cipac D 4 h / Emulsion 5% in Cipac D 24 h: amide 63%; for Stability of the emulsion comprising the amide: summary in words of Example 4
Procedure: Stable in the context of the present invention means that no cream has formed within 24 hours after mixing components of a formulation. To measure the stability, 5% of the formulation (emulsion concentrate) is diluted in CIPAC water D in a 100 ml cylinder. The resulting oil-in-water emulsion is assessed after 1, 2, 4 and 24 hours.

[2] = Determination of the max. solubility of fungicide/herbicide in the carboxylic acid amide (quantitative 1H-NMR of supernatant); format: physicochemical
Procedure: The respective fungicide/herbicide was dissolved in the solvent of interest so that a supersaturated solution was obtained. The deposit was filtered off. The concentration of the fungicide/herbicide in the supernatant was determined via quantitative 1H-NMR spectroscopy.

wheat and black bindweed = test: Phytotoxicity laboratory test: plants treated with 2 g of a 1% emulsion, evaluated visually after 3 days; format: in vivo
Procedure: No phytotoxicity in the context of the present invention means that in comparison to untreated plants, 0% of the treated plants have plant injury according to the phytotoxicity method described below.
Phytotoxicity in accordance with the present invention is determined by an assay where e.g. wheat (grasses) or black bindweed (broad leave), are treated with 2 g of a 1% Emulsion described below and are visually evaluated after 3 days of incubation. Plant injury covers the assessment of leave condition as well as resistance to lodging in case of grasses.
The emulsion is prepared by mixing 1% of concentrate with water. The concentrate consists of 7.5% of castor oil ethoxylate (30 EO), 2.5% Ca-Dodecylbenzolsulfonate and 90% carboxylic acid amide. The experimental period lasts for 3 days. During this time, the experimental plants receive optimum watering, with nutrients being supplied via the water used for watering.
The phytotoxicity is evaluated by awarding scores to the treated plants in comparison to untreated plants, i.e. treated with water only. The evaluation scale ranges from 0% to 100% phytotoxicity. The evaluation is done by visual examination. 0% phytotoxicity means that there are no differences between treated and untreated plants. […]
Plants, i.e. wheat and black bindweed, were treated with 2 g of a 1% Emulsion described below and were visually evaluated after 3 days of incubation. […]

[3] = Formulation: Oxyfluorfen 25%, Ca Dodecylbenzolsulfonat 2%, Castor oil ethoxylate (35 EO) 10%
[4] = Formulation: Oxyfluorfen 25%, Castor oil ethoxylate (35 EO) 12%
[5] = Formulation: Tebuconazol 25%, Ca Dodecylbenzolsulfonat 2%, Castor oil ethoxylate (35 EO) 10%
[6] = Formulation: Tebuconazol 25%, Castor oil ethoxylate (35 EO) 12%

| Compound | Emulsion 5% in Cipac D 1 h [1, 3] | Emulsion 5% in Cipac D 2 h [1, 3] | Emulsion 5% in Cipac D 4 h [1, 3] | Emulsion 5% in Cipac D 24 h [1, 3] [ml cream] | Emulsion 5% in Cipac D 1 h [1, 4] | Emulsion 5% in Cipac D 2 h [1, 4] | Emulsion 5% in Cipac D 4 h [1, 4] | Emulsion 5% in Cipac D 24 h [1, 4] | Emulsion 5% in Cipac D 1 h [1, 5] | Emulsion 5% in Cipac D 2 h [1, 5] | Emulsion 5% in Cipac D 4 h [1, 5] | Emulsion 5% in Cipac D 24 h [1, 5] [ml cream] | Emulsion 5% in Cipac D 1 h [1, 6] | Emulsion 5% in Cipac D 2 h [1, 6] | Emulsion 5% in Cipac D 4 h [1, 6] [ml cream] | Emulsion 5% in Cipac D 24 h [1, 6] [ml cream] | Stability of the emulsion comprising the amide [1] | other results |
| --- | --- | --- | --- | --- | --- | --- | --- | --- | --- | --- | --- | --- | --- | --- | --- | --- | --- | --- |
| CCCCCCCCC(=O)N(C)C [n-C9 N,N-dimethylamide] | 0.5 ml cream | 3 ml cream | 4.0 ml cream | 6 | 0.5 ml cream | 1 ml cream | 4.0 ml cream | 6 ml cream | 3.0 ml cream | 8 ml cream | 8.0 ml cream | 8 | stable | 2 ml cream | 3.0 | 3 | unstable | Solubility [%] Oxyfluorfen [2]: 34%; Solubility [%] Pyraclostrobin [2]: 46%; Solubility [%] Tebuconazole [2]: 42% |
| CC(CC(=O)N(C)C)CC(C)(C)C (stereo not drawn) [Isononanoic acid N,N-dimethylamide, isononanoic acid N,N-dimethylamide] | stable | stable | stable | 0.5 | stable | stable | stable | stable | stable | stable | stable | 0.5 | stable | stable | 0.5 | 0.5 | stable | Phytotoxicity (wheat and black bindweed; 3 days after treatment, 1% emulsion of concentrate (7.5% castor oil ethoxylate (30 EO), 2.5% Ca-Dodecylbenzolsulfonate, 90% amide), wheat and black bindweed): 0 (0 means no damage); Phytotoxic effect on plants (wheat and black bindweed; statement in words in the description): no phytotoxic effect |
